Assays:
Format in all cases: cell-based
HEK293 cells [1] = test: Preliminary screening as mRNA vectors, EGFP mRNA transfection of HEK293 cells; conditions: HEK293 cells, 96-well plates, EGFP mRNA 50 ng per well; percentage of GFP fluorescent cells relative to total number of cells (Hoechst)
In short: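 HEK293 cells in DMEM plus 10% FBS transfected in 96-well format with 50 ng EGFP mRNA per well; Lipofectamine2000 served as positive control. Read-out is the percentage of GFP-fluorescent cells among total cells, counted by Hoechst nuclear stain.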

Hela cells [2] = test: Transfection of Hela cell line, DNA vectors; conditions: 75 ng plasmid DNA, GFP cells / total cells
Description: 1. The compound (0.01 mmol) prepared in Example 1 was dissolved in 1 mL of anhydrous ethanol. After ultrasonically dissolved, 10 μL of the resultant amino lipid solution in ethanol was taken and mixed with 5 μL of DOPE solution in ethanol (0.01 m), and then to the obtained mixture was added 35 μL of 0.2M sodium acetate buffer (pH 5.6), and 50 μL of liposome solution was prepared by vortex at a constant rotating speed for 30 s. 4 μL was taken from the 50 μL liposome solution and added to 46 μL of 0.02M sodium acetate buffer (pH 5.6), and the final liposome solution was formed by vortex at a constant rotating speed for 30 s. 5 μL was taken from the final liposome solution and mixed with 75 ng plasmid DNA (psin-EGFP-IRES-Puro, Clontech) dissolved in 5 μL of 0.02 M sodium acetate buffer, and was allowed to stay at room temperature for 30 min to form a lipid/DNA transfection complex.
2. 10 μL of the lipid/DNA transfection complex was incubated at room temperature for 30 min, followed by addition of 90 μL of fresh resuspended cells (3-5×10^4 cells) and mixing with a pipette. 100 μL of cells+lipid/DNA complex was transferred to separate wells of a 96-well culture plate immediately, and placed in an incubator containing 5% CO2 at 37° C.
3. Hoechst33258 (Invitrogen) was added at a final concentration of 0.2 μg/mL to the cells 20 to 24 hours after initial cell transfection, and cultured in darkness at 37° C. for 15 min. Afterwards, the cells were washed once with a PBS solution, and then added with medium for culture for 20 to 24 h.
4. The cells were placed in a high-throughput confocal microscope (Molecular Devices ImageXpress), and four visual fields of the image of the cells were captured for each well, and images at three laser wavelengths were captured for each sample: bright field images of cells (FIG. 2(a) and FIG. 2(b)), Hoechst-staining images showing total nuclei (FIG. 2(c) and FIG. 2(d)) and GFP images showing success in transfection with the plasmid DNA and the expression of GFP (FIG. 2(e) and FIG. 2(f)). MetaXpress software was used to separately count the cells in the Hoechst-staining images and GFP images, and then the number of cells expressing GFP was divided by the total number of nuclei to give the absolute cell transfection efficiency. The absolute transfection efficiency was calculated as follows: […]
(§1) Cell line: Hela cells (ATCC 35241)
(§2) Medium: DMEM supplemented with 10% fetal bovine serum (Invitrogen)
(§3) Screening: cell transfection on 96-well plates
(§4) Detection (readout): percentage of the number of GFP fluorescent cells relative to the total number of cells (the total number of cells was determined using nucleus dye Hoechst). Lipofectamine2000 (Invitrogen) was used as the positive control, according to the manufacturer's instructions.
(§5) Method: the experimental method was basically the same with Example 4.

HEK293 cells [3] = test: Preliminary screening as DNA vectors, GFP transfection of HEK293 cells; conditions: HEK293 cells; lipid/DOPE liposome with 75 ng plasmid DNA (psin-EGFP-IRES-Puro); number of cells expressing GFP divided by total number of nuclei (Hoechst)
In short: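 HEK293 cells in DMEM/10% FBS transfected with 75 ng EGFP plasmid per well complexed with amino lipid/DOPE liposomes in pH 5.6 sodium acetate. Hoechst nuclear stain added 20-24 h post-transfection, then cells cultured another 20-24 h. Confocal imaging gives GFP-positive cells as % of total nuclei.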

Hela cells [4] = test: Transfection of Hela cell line, mRNA vectors; conditions: 50 ng EGFP mRNA per well
Description: as §1, §2, §3
as §4, with “Hoechst). A commercially available liposome transfection reagent” for “Hoechst).”, “control group,” for “control,”
Method: the experimental method was basically the same with Example 4, and the mass of EGFP mRNA for transfection was 50 ng per well.

MCF7 cells [5] = test: Transfection of MCF7 cell line, mRNA vectors; conditions: 50 ng EGFP mRNA per well
Description: (§6) Cell line: MCF7 cells (ATCC HTB-22)
Medium: DMEM supplemented with 10 fetal bovine serum (Invitrogen)
as §3
Detection (readout): percentage of the number of GFP fluorescent cells relative to the total number of cells (the total number of cells was determined using nucleus dye Hoechst). Lipofectamine2000 (Invitrogen) was used as the positive control.
Method: the experimental method was basically the same with Example 4, and the mass of EGFP mRNA (TriLink) for transfection was 50 ng per well.

MCF7 cells [6] = test: Transfection of MCF7 cell line, DNA vectors; set-up: concentration or dose not given beside the values; conditions: plasmid DNA, GFP cells / total cells
Description: as §6
Medium DMEM supplemented with […] fetal bovine serum
as §3
Detection (readout): percentage of the number of GFP fluorescent cells relative to the total number of cells (the total number of cells was determined using nucleus dye Hoechst). Lipofectamine2000 was used as the positive control, according to the manufacturer's instructions.
as §5

SMILES	Absolute mRNA transfection efficiency in HEK293 cells (HEK293 cells [1])	Absolute DNA transfection efficiency in Hela cells (Hela cells [2])	Absolute DNA transfection efficiency in HEK293 cells (HEK293 cells [3])	Absolute mRNA transfection efficiency in Hela cells (Hela cells [4])	Absolute mRNA transfection efficiency in MCF7 cells (MCF7 cells [5])	Absolute DNA transfection efficiency in MCF7 cells (MCF7 cells [6])
CCCCCCCCCCCCCCSc1nc(NCCN(CC)CC)nc(SCCCCCCCCC)n1 [Compound S9S14D7]	1.5%	6.5%	12.5%	6.2%		
CCCCCCCCCCCCCCCSc1nc(NCCN2CCOCC2)nc(SCCCCCCCCC)n1 [Compound S9S15D2]	0.0%	5.9%	10.6%	5.9%		
CCCCCCCCCCCCCNc1nc(NCCCN2CCOCC2)nc(SCCCCCCCC)n1 [Compound S8N13D8]		6.6%		6.6%	0.4%	0.9%
CCCCCCCCCCCCCCCCSc1nc(NCCN(CC)CC)nc(SCCCCCCCCC)n1 [Compound S9S16D7]	1.8%	4.2%	8.4%	4.2%		
CCCCCCCCCCCCSc1nc(NCCN(CC)CC)nc(SCCCCCCCCC)n1 [Compound S9S12D7]	3.4%	2.7%	5.3%	2.7%		
CCCCCCCCCCCCCCCSc1nc(NCCN(CC)CC)nc(SCCCCCCCCC)n1 [Compound S9S15D7]	1.2%	2.8%	5.0%	2.8%		
CCCCCCCCCCCCSc1nc(NCCN(C)C)nc(SCCCCCCCCC)n1 [Compound S9S12D1]	0.8%	7.9%	14.6%	7.9%		
CCCCCCCCCCCCCCCSc1nc(NCCN2CCCCC2)nc(SCCCCCCCCC)n1 [Compound S9S15D4]	2.1%	5.8%	11.8%	5.8%		
CCCCCCCCCCCCSc1nc(NCCN2CCCCC2)nc(SCCCCCCCCC)n1 [Compound S9S12D4]	0.6%	0.0%	0.0%	0.0%		
CCCCCCCCCCCCCCSc1nc(NCCN2CCCCC2)nc(SCCCCCCCCC)n1 [Compound S9S14D4]	0.7%	3.6%	7.2%	3.6%		
CCCCCCCCCCCCCCSc1nc(NCCN2CCOCC2)nc(SCCCCCCCCC)n1 [Compound S9S14D2]	0.3%	7.3%	14.3%	7.3%		
CCCCCCCCCCCCCCCCSc1nc(NCCN(C)C)nc(SCCCCCCCCC)n1 [Compound S9S16D1]	0.0%	0.0%	0.0%	0.0%		
CCCCCCCCCCCCCCCCSc1nc(NCCN2CCOCC2)nc(SCCCCCCCCC)n1 [Compound S9S16D2]	0.0%	0.7%	1.5%	0.7%		
CCCCCCCCCCCCSc1nc(NCCN2CCOCC2)nc(SCCCCCCCCC)n1 [Compound S9S12D2]	0.0%	8.5%	16.7%	8.5%		
CCCCCCCCCCCCCCCSc1nc(NCCN(C)C)nc(SCCCCCCCCC)n1 [Compound S9S15D1]	0.0%	1.3%	2.1%	1.3%		
CCCCCCCCCCCCCCSc1nc(NCCN(C)C)nc(SCCCCCCCCC)n1 [Compound S9S14D1]	1.6%	1.4%	2.1%	1.4%		
CCCCCCCCCCCCSc1nc(NCCN(CC)CC)nc(SCCCCCCCC)n1 [Compound S8S12D7]		4.6%		4.6%		
CCCCCCCCCNc1nc(NCCN(C)C)nc(SCCCCCCCCC)n1 [Compound S9N9D1]		17.7%		17.7%		
CCCCCCCCCCCSc1nc(NCCCCCCC)nc(NCCN(CC)CC)n1 [Compound S11N7D7]		5.8%		5.8%		
CCCCCCCCCCCNc1nc(NCCN(C)C)nc(SCCCCCCCCC)n1 [Compound S9N11D1]		17.7%		17.7%		
CCCCCCCCCCCSc1nc(NCCCCCCCCC)nc(NCCN2CCCCC2)n1 [Compound S11N9D4]		0.5%		0.5%		
CCCCCCCCCCCSc1nc(NCCN(CC)CC)nc(SCCCCCCC)n1 [Compound S7S11D7]		5.2%		5.2%		
CCCCCCCCCCCCNc1nc(NCCN(CC)CC)nc(SCCCCCCCC)n1 [Compound S8N12D7]		4.7%		4.7%		
CCCCCCCCCNc1nc(NCCN2CCOCC2)nc(SCCCCCCCCC)n1 [Compound S9N9D2]		12.0%		12.0%		
CCCCCCCCCCCSc1nc(NCCN(C)C)nc(SCCCCCCCC)n1 [Compound S8S11D1]		4.59%		4.9%		
CCCCCCCCCCCCCCCCSc1nc(NCCN2CCCCC2)nc(SCCCCCCCCC)n1 [Compound S9S16D4]	1.2%	6.2%	12.2%	6.2%		

Reference: patent US20230123334A1, “AMINO LIPID COMPOUND, PREPARATION METHOD THEREFOR, AND APPLICATION THEREOF” (SHENZHEN SHENXIN BIOTECHNOLOGY CO., LTD., priority 2020, published 2023)
